Measured values reported in US20240108598A1, “Danegaptide for Use in the Treatment or Prevention of a Kidney Disease” (CIANA THERAPEUTICS APS, priority 2021, published 2024).

Key:
[1] = system: HK2 cells; experiment: MTT assay (cell viability); assay type: cell-based, human; settings: 48 h
Description: HK2 cells were cultured in low glucose (5 mM) for 48 h, prior to being serum-starved overnight and subsequently treated with TGFβ1 (10 ng/mL)±danegaptide (50 nM-1 μM) for 48 h (FIG. 1A, n=3).
The 3-(4,5-Dimethylthiazol-2-yl)-2,5-diphenyltetrazolium bromide (MTT) assay was performed as known in the art to assess the cytotoxic effects of danegaptide on cell proliferation. HK2 cells were seeded in 96-well plates and cultured in low glucose DMEM/F12 (5 mM) for 48 h, prior to overnight serum-starvation, then subsequently stimulated for 48 h with TGFβ1 (10 ng/ml)±danegaptide (50-1000 nM). Colourmetric measurement of formazan production corresponds to the number of viable cells.

[2] = biological target: T1, Cx43 hemichannels (Homo sapiens, UniProt P17302); experiment: ATP biosensing (hemichannel mediated ATP release); assay type: cell-based; settings: for ATP release: hPTECs
T1 construct: host or cells: HK2 human kidney proximal tubule epithelial cell line
Description: HK2 cells were cultured in low (5 mM) glucose with/without TGFβ1 (10 ng/ml)±danegaptide (50 or 100 nM) for 48 h. Representative biosensor traces show ATP release following removal of extracellular calcium. […] Peak responses were quantified by comparing against a known concentration of ATP (10 μM) and mean data±SEM plotted (E). Results are representative of 3 separate experiments (n=3; **P<0.01, […] ***P<0.001; one-way ANOVA and Tukey's post-test).
ATP biosensors (Sarissa Biomedical, Coventry UK) were used in a simultaneous dual-recording ampomeric setup as described previously (Price, G. W.; Chadjichristos, C. E.; Kavvadas, P.; Tang, S. C. W.; Yiu, W. H.; Green, C. R.; Potter, J. A.; Siamantouras, E.; Squires, P. E.; Hills, C. E. Blocking Connexin-43 mediated hemichannel activity protects against early tubular injury in experimental chronic kidney disease. Cell Commun. Signal. 2020, 18). A null biosensor was used to account for non-specific electro-active artefacts and subtracted from the ATP trace. Glycerol (2 mM) was included in all recording solutions to enable ATP detection. HK2 cells were seeded on glass coverslips (10 mm diameter) in low glucose DMEM/F12 (5 mmol/L) for 48 h, prior to an overnight serum-starvation. The cells were then incubated with TGFβ1 (10 ng/ml)±danegaptide (100 nM) for 48 h. The coverslips were transferred to a chamber containing Ca^2+-containing BSS perfused at 6 ml/min (37° C.) and left for 10 min to acclimatise. ATP and null biosensors were bent and lowered so that the electrode laid parallel to the cellular monolayer. Once a stable baseline occurred, perfusion of Ca^2+-free BSS stimulated hemichannel opening. After ATP release, Ca^2+-containing BSS was used to close hemichannels, followed by a calibration solution of ATP ([…]). Recordings were acquired at 4 Hz with a Micro CED (Mark2) interface using Spike (v8.03) software.

[3] = system: primary hPTECs; experiment: Western blotting of adherens and tight junction proteins; assay type: cell-based, human; settings: 48 h
Description: (§1) Primary hPTECs were cultured in low (5 mM) glucose±TGFβ1 (10 ng/mL)±danegaptide (100 nM) for 48 h. Expression of E-cadherin (ECAD), N-cadherin (NCAD) and vimentin (panel A), and Claudin-2 and Zonula Occludens (ZO-1) and b-catenin (panel B) were assessed via western blotting. TGFβ1 reduced E-cadherin, Claudin-2 and ZO-1 expression and increased N-cadherin and vimentin expression (**P<0.01, ***P<0.001; mean±SEM, n=3). Effects were partially or completely reversed by danegaptide (100 nM; ▴P<0.05 and ▴▴▴P<0.001; mean±SEM, n=3). Representative blots for each protein are shown, with expression normalised by re-probing for α-tubulin as a loading control. In panel C, transepithelial electrical resistance (TER) assessed the consequence of altered adherens & tight-junction protein expression on epithelial integrity. HK2 cells were cultured in low (5 mM) glucose on transwell inserts and transepithelial resistance measured.
To determine if danegaptide can negate TGFβ1-mediated changes in adherens and tight junction proteins, hPTECs were incubated with TGFβ1 (10 ng/mL)±danegaptide (100 nM) for 48 h and expression of candidate proteins assessed by Western blotting. Preparation of cytosolic protein from HK2 and HPTEC cells, their separation by SDS-gel electrophoresis and transfer onto Immobilon-FI PVDF membranes have been described previously (Price, G. W.; Chadjichristos, C. E.; Kavvadas, P.; Tang, S. C. W.; Yiu, W. H.; Green, C. R.; Potter, J. A.; Siamantouras, E.; Squires, P. E.; Hills, C. E. Blocking Connexin-43 mediated hemichannel activity protects against early tubular injury in experimental chronic kidney disease. Cell Commun. Signal. 2020, 18). Membranes were blocked using Odyssey blocking buffer (LI-COR), then probed overnight with antibodies against E-cadherin (1:1000), N-cadherin (1:1000), claudin-2 (1:500) and ZO-1 (1:1000), Col I (1:1000), Col IV (1:2000), Fibronectin (1:4000), Laminin (1:500), ILK1 (1:500), beta-catenin (1:2000), Vimentin (1:500), MMP3 (1:500). Bands were visualised using an OdysseyFC and semi-quantified using ImageStudio (v5.2, LI-COR). Additionally, transepithelial electrical resistance (TER) was measured as a functional measure of epithelial cell-cell coupling and paracellular permeability.

[4] = system: HK2 cells; experiment: Transepithelial electrical resistance (TER); assay type: cell-based, human; settings: HK2 cells on transwell inserts
Description: as §1
To determine if danegaptide can negate TGFβ1-mediated changes in adherens and tight junction proteins, hPTECs were incubated with TGFβ1 (10 ng/mL)±danegaptide (100 nM) for 48 h and expression of candidate proteins assessed by Western blotting. […] Bands were visualised using an OdysseyFC and semi-quantified using ImageStudio (v5.2, LI-COR). […]

[5] = TGFβ1 10 ng/mL + danegaptide 100 nM

T1 sequence (P17302 whole entry): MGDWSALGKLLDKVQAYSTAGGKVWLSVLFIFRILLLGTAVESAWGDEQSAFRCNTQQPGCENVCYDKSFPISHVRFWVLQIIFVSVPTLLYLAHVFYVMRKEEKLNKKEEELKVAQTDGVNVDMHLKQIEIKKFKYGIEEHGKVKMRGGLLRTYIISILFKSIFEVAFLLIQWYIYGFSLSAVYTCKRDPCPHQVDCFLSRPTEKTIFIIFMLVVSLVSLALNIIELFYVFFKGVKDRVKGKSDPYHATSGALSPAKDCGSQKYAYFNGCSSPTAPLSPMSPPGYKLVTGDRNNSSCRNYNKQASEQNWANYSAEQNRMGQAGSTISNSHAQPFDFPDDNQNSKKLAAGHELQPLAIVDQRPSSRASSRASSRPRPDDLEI

TGFβ1: Recombinant hTGFβ1 (Sigma); pro-fibrotic cytokine used to stimulate the cells [reference compound]
cell viability (MTT) as compared to control ([1]; TGFβ1 10 ng/mL alone): 101.9±11.7%
ATP release ([2]; TGFβ1 10 ng/mL alone, 48 h, removal of extracellular calcium): 3.60 ± 0.29 µM
Claudin-2 expression, of control ([3]; TGFβ1 10 ng/mL alone): 44.5±5%
E-cadherin (ECAD) expression, of control ([3]; TGFβ1 10 ng/mL alone): 33.3±3.3%
N-cadherin (NCAD) expression, of control ([3]; TGFβ1 10 ng/mL alone): 224.4±29.6%
ZO-1 expression, of control ([3]; TGFβ1 10 ng/mL alone): 27.8±11.3%
vimentin expression, of control ([3]; TGFβ1 10 ng/mL alone): 212.9±13%
Beta-catenin expression, of control ([3]; TGFβ1 alone): 149.2±11.2%
transepithelial resistance ([4]; TGFβ1 10 ng/mL alone): 10±1.53 Ω·cm2

NCC(=O)N1C[C@H](NC(=O)c2ccccc2)C[C@H]1C(=O)O [danegaptide, (2S,4R)-1-(2-aminoacetyl)-4-benzamidopyrrolidine2-carboxylic acid]
cell viability (MTT) as compared to control ([1]; TGFβ1 10 ng/mL + danegaptide 50 nM): 104.1±2.2%
cell viability (MTT) as compared to control [1, 5]: 93.4±1.6%
cell viability (MTT) as compared to control ([1]; TGFβ1 10 ng/mL + danegaptide 1 μM): 89.3±3.7%
cell viability (MTT) as compared to control ([1]; danegaptide alone 50 nM): 95.2±7%
cell viability (MTT) as compared to control ([1]; danegaptide alone 100 nM): 103±5.7%
cell viability (MTT) as compared to control ([1]; danegaptide alone 1 μM): 96.6±5.3%
optimal concentration in the microenvironment (dose finding, dye uptake and ATP biosensing) ([2]; HK2 cells): 50 to 100 nM
ATP release ([2]; TGFβ1 10 ng/mL + danegaptide 50 nM, 48 h): 1.90 ± 0.26 µM
ATP release ([2]; TGFβ1 10 ng/mL + danegaptide 100 nM, 48 h): 0.79 ± 0.19 µM
ATP release ([2]; danegaptide alone 50 nM): 0.35 ± 0.10 µM
ATP release ([2]; danegaptide alone 100 nM): 0.31 ± 0.09 µM
Claudin-2 expression, of control [3, 5]: 74.6±5%
E-cadherin (ECAD) expression, of control [3, 5]: 89±7.6%
N-cadherin (NCAD) expression, of control [3, 5]: 161.9±27.4%
ZO-1 expression, of control [3, 5]: 52.8±5.4%
vimentin expression, of control [3, 5]: 147.3±8.8%
Beta-catenin expression, of control ([3]; TGFβ1+danegaptide 100 nM): 151.6±16.8%
transepithelial resistance [4, 5]: 36±2.08 Ω·cm2
